# In PMC9784969, “SARS-CoV-2 Inhibitors Identified by Phenotypic Analysis of a Collection of Viral RNA-Binding Molecules” (Pharmaceuticals, 2022):
# Legend:
# Assay in all cases: ligand-based 1H NMR (1D, CPMG, wLOGSY)
# Type in all cases: binding, SARS-CoV-2
# ORF7b RNA = details: RNA:ligand 1:50
# ATTL RNA = test system: ATTL RNA
# 3_S2m RNA = test system: 3_S2m RNA
# [1] = average of aliphatic protons, RNA:ligand 1:100 (clomiphene) or 1:50 (trim, qz2)
# [2] = average of aromatic protons, RNA:ligand 1:100 (clomiphene) or 1:50 (trim, qz2)
smiles,measurement,setting,value
CC(C)CCN1CCC(CNc2nc3ccccc3c(=O)[nH]2)CC1 [qz2],LOGSY factor,ORF7b RNA; qz2 peak E/B,5.54%
same,CPMG variation,ORF7b RNA; qz2 peak F,-4.16%
same,LB,ORF7b RNA; qz2 peak F,-14.4%
same,LOGSY factor,ORF7b RNA; qz2 peak F,6.18%
same,CPMG variation,ORF7b RNA; qz2 peak G,-19.2%
same,LB,ORF7b RNA; qz2 peak G,-8.90%
same,LOGSY factor,ORF7b RNA; qz2 peak G,6.45%
same,CPMG variation,ORF7b RNA; qz2 peak I,48.3%
same,LB,ORF7b RNA; qz2 peak I,30.9%
same,LOGSY factor,ORF7b RNA; qz2 peak I,7.00%
same,CPMG variation,ORF7b RNA; qz2 peak J,45.5%
same,LB,ORF7b RNA; qz2 peak J,38.3%
same,LOGSY factor,ORF7b RNA; qz2 peak J,76.3%
same,CPMG variation,ORF7b RNA; qz2 peak K,58.5%
same,LB,ORF7b RNA; qz2 peak K,9.52%
same,LOGSY factor,ORF7b RNA; qz2 peak K,17.9%
same,CPMG variation,ATTL RNA; [1],1.57%
same,LB,ATTL RNA; [1],4.09%
same,LOGSY factor,ATTL RNA; [1],4.38%
same,CPMG variation,ATTL RNA; [2],10.0%
same,LB,ATTL RNA; [2],3.39%
same,LOGSY factor,ATTL RNA; [2],9.98%
same,CPMG variation,"ATTL RNA; qz2 peak A, RNA:ligand 1:50",7.14%
same,LB,"ATTL RNA; qz2 peak A, RNA:ligand 1:50",6.48%
same,LOGSY factor,"ATTL RNA; qz2 peak A, RNA:ligand 1:50",2.39%
same,CPMG variation,"ATTL RNA; qz2 peak C/D, RNA:ligand 1:50",3.98%
same,LB,"ATTL RNA; qz2 peak C/D, RNA:ligand 1:50",2.52%
same,LOGSY factor,"ATTL RNA; qz2 peak C/D, RNA:ligand 1:50",6.82%
same,CPMG variation,"ATTL RNA; qz2 peak E/B, RNA:ligand 1:50",-8.59%
same,LB,"ATTL RNA; qz2 peak E/B, RNA:ligand 1:50",7.56%
same,LOGSY factor,"ATTL RNA; qz2 peak E/B, RNA:ligand 1:50",2.78%
same,CPMG variation,"ATTL RNA; qz2 peak F, RNA:ligand 1:50",7.26%
same,LB,"ATTL RNA; qz2 peak F, RNA:ligand 1:50",-1.84%
same,LOGSY factor,"ATTL RNA; qz2 peak F, RNA:ligand 1:50",3.39%
same,CPMG variation,"ATTL RNA; qz2 peak G, RNA:ligand 1:50",2.72%
same,LB,"ATTL RNA; qz2 peak G, RNA:ligand 1:50",8.16%
same,LOGSY factor,"ATTL RNA; qz2 peak G, RNA:ligand 1:50",6.53%
same,CPMG variation,"ATTL RNA; qz2 peak I, RNA:ligand 1:50",9.63%
same,LB,"ATTL RNA; qz2 peak I, RNA:ligand 1:50",3.05%
same,LOGSY factor,"ATTL RNA; qz2 peak I, RNA:ligand 1:50",10.3%
same,CPMG variation,"ATTL RNA; qz2 peak J, RNA:ligand 1:50",9.03%
same,LB,"ATTL RNA; qz2 peak J, RNA:ligand 1:50",12.1%
same,LOGSY factor,"ATTL RNA; qz2 peak J, RNA:ligand 1:50",5.22%
same,CPMG variation,"ATTL RNA; qz2 peak K, RNA:ligand 1:50",10.5%
same,LB,"ATTL RNA; qz2 peak K, RNA:ligand 1:50",-5.00%
same,LOGSY factor,"ATTL RNA; qz2 peak K, RNA:ligand 1:50",14.4%
same,CPMG variation,3_S2m RNA; [1],-0.71%
same,LB,3_S2m RNA; [1],1.30%
same,LOGSY factor,3_S2m RNA; [1],3.15%
same,CPMG variation,3_S2m RNA; [2],10.3%
same,LB,3_S2m RNA; [2],6.50%
same,LOGSY factor,3_S2m RNA; [2],11.1%
same,CPMG variation,"3_S2m RNA; qz2 peak A, RNA:ligand 1:50",6.71%
same,LB,"3_S2m RNA; qz2 peak A, RNA:ligand 1:50",4.87%
same,LOGSY factor,"3_S2m RNA; qz2 peak A, RNA:ligand 1:50",1.60%
same,CPMG variation,"3_S2m RNA; qz2 peak C/D, RNA:ligand 1:50",-1.93%
same,LB,"3_S2m RNA; qz2 peak C/D, RNA:ligand 1:50",2.61%
same,LOGSY factor,"3_S2m RNA; qz2 peak C/D, RNA:ligand 1:50",3.32%
same,CPMG variation,"3_S2m RNA; qz2 peak E/B, RNA:ligand 1:50",-10.6%
same,LB,"3_S2m RNA; qz2 peak E/B, RNA:ligand 1:50",11.4%
same,LOGSY factor,"3_S2m RNA; qz2 peak E/B, RNA:ligand 1:50",6.11%
same,CPMG variation,"3_S2m RNA; qz2 peak F, RNA:ligand 1:50",6.38%
same,LB,"3_S2m RNA; qz2 peak F, RNA:ligand 1:50",-12.7%
same,LOGSY factor,"3_S2m RNA; qz2 peak F, RNA:ligand 1:50",2.81%
same,CPMG variation,"3_S2m RNA; qz2 peak G, RNA:ligand 1:50",-1.76%
same,LB,"3_S2m RNA; qz2 peak G, RNA:ligand 1:50",4.32%
same,LOGSY factor,"3_S2m RNA; qz2 peak G, RNA:ligand 1:50",1.92%
same,CPMG variation,"3_S2m RNA; qz2 peak I, RNA:ligand 1:50",10.3%
same,LB,"3_S2m RNA; qz2 peak I, RNA:ligand 1:50",11.5%
same,LOGSY factor,"3_S2m RNA; qz2 peak I, RNA:ligand 1:50",5.19%
same,CPMG variation,"3_S2m RNA; qz2 peak J, RNA:ligand 1:50",9.16%
same,LB,"3_S2m RNA; qz2 peak J, RNA:ligand 1:50",11.3%
same,LOGSY factor,"3_S2m RNA; qz2 peak J, RNA:ligand 1:50",9.42%
same,CPMG variation,"3_S2m RNA; qz2 peak K, RNA:ligand 1:50",11.6%
same,LB,"3_S2m RNA; qz2 peak K, RNA:ligand 1:50",-3.23%
same,LOGSY factor,"3_S2m RNA; qz2 peak K, RNA:ligand 1:50",18.7%
